Results from patent US20120040930A1, “TETRACYCLIC TERPENE SERIES COMPOUNDS, METHODS FOR PREPARING SAME, USES THEREOF AS MEDICINES AND PHARMACEUTICAL COMPOUNDS CONTAINING SAME” (priority 2005, published 2012).
Values joined by “and” are separate entries in the source; they are usually repeats but may differ in a detail not shown here. Equal entries are not always repeated. Where two headings read alike, the source gives them in different places.

Legend:
[1] = biological target: T1, acetylcholinesterase (AChE) isolated from Electrophorus electricus (Electrophorus electricus, UniProt O42275); experiment: biochemical
T1 construct: AChE isolated from Electrophorus electricus; from tissue

[2] = biological target: T2, human serum butyrylcholinesterase (BChE) (Homo sapiens, UniProt P06276); experiment: biochemical
T2 construct: BChE isolated from human serum; from tissue; host or cells: human serum

[3] = AChE isolated from Electrophorus electricus, read-out: AChE IC50
[4] = human serum BChE, read-out: BChE

T1 sequence (O42275 24-633): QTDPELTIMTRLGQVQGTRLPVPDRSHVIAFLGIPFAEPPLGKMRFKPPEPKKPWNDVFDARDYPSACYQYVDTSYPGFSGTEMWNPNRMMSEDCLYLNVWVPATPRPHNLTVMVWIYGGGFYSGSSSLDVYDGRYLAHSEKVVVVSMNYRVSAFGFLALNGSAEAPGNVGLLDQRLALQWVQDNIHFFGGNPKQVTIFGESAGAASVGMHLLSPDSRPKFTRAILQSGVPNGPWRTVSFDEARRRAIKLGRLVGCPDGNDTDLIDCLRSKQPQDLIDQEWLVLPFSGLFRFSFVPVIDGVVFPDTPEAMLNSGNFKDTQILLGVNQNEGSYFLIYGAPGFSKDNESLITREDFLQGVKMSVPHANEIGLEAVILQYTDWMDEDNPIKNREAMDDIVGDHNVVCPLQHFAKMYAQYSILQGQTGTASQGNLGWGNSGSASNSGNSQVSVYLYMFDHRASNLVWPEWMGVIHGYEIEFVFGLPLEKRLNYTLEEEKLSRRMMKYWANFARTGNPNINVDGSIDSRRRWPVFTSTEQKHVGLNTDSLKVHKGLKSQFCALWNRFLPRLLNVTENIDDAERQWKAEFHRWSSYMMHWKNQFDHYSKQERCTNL
T2 sequence (P06276 29-602): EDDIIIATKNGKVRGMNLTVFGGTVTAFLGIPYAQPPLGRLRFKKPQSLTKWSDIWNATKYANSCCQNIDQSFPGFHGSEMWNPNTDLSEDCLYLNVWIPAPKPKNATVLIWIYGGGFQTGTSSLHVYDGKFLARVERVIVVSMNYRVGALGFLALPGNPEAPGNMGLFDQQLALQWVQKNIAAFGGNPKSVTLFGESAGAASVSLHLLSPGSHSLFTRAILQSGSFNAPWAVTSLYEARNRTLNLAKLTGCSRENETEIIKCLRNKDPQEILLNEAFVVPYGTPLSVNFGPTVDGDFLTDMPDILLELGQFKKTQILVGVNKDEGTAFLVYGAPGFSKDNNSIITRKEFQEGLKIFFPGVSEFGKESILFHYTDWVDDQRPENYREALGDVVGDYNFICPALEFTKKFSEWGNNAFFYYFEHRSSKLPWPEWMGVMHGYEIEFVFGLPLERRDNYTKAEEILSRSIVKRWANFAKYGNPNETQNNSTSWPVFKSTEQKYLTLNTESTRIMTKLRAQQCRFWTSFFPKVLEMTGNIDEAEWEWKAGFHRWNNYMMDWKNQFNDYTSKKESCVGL

Row | SMILES | IC50 [1, 3] | IC50 [2, 4] | IC50 ([1]; AChE IC50) | IC50 [2]
1 | C[C@@H]([C@H]1[C@H](O)C[C@@]2(C)[C@@H]3CC[C@@H]4C(=CC[C@H](NC(=O)Cc5ccccc5)[C@@]4(C)CO)C[C@H]3C(=O)C[C@]12C)N(C)C [Compound 7g, (20S)-10(9->1)abeo-4α-hydroxymethyl-4,14α-dimethyl-20-dimethylamino-3 (phenylacetylamino)-5α,9-pregn-1(10)-en-16α-ol-11-one] | > 1 µM | > 10 µM | – | –
2 | CCC(C)C(=O)N[C@H]1CC=C2C[C@H]3C(=O)C[C@]4(C)[C@@H]([C@H](C)N(C)C)[C@H](O)C[C@@]4(C)[C@@H]3CC[C@H]2[C@]1(C)CO (mixture of isomers) [Compound 7h, (20S)-10(9->1)abeo-4α-hydroxymethyl-4,14α-dimethyl-20-dimethylamino-3 (2-methylbutyrylamino)-5α,9-pregn-1(10)-en-16α-ol-11-one] | – | 1.93 µM | 0.12 µM | –
3 | CCC(C)C(=O)N[C@H]1CCC23C[C@]24C(=O)C[C@]2(C)[C@@H]([C@H](C)N(C)C)[C@H](O)C[C@@]2(C)[C@@H]4CC[C@H]3[C@]1(C)CO (stereo partly drawn) [Compound 6h, (20S)-9,19-cyclo-4α-hydroxymethyl-4,14α-dimethyl-20-dimethylamino-3 (2-methylbutyrylamino)-5α,9-pregnan-16α-ol-11-one] | > 100 µM | 0.121 µM | – | –
4 | CCC(=O)N[C@H]1CC=C2C[C@H]3C(=O)C[C@]4(C)[C@@H]([C@H](C)N(C)C)[C@H](O)C[C@@]4(C)[C@@H]3CC[C@H]2[C@]1(C)CO [Compound 7c, (20S)-10(9->1)abeo-4α-hydroxymethyl-4,14α-dimethyl-20-dimethylamino-3-propionylamino-5α,9-pregn-1(10)-en-16α-ol-11-one] | > 1 µM | > 10 µM | – | –
5 | CC(C)C(=O)N[C@H]1CCC23C[C@]24C(=O)C[C@]2(C)[C@@H]([C@H](C)N(C)C)[C@H](OC(=O)C(C)(C)C)C[C@@]2(C)[C@@H]4CC[C@H]3[C@]1(C)/C=N/Cc1ccccc1 (stereo partly drawn) [Compound 19, (20S)-16α-pivalyl-3-isobutyrylamino-9,19-cyclo-4α-benzyliminomethyl-4,14α-dimethyl-20-dimethylamino-5α,9-pregnan-11-one] | > 1 µM | 1.28 µM | – | –
6 | CC(=O)O[C@@H]1C[C@@]2(C)[C@@H]3CC[C@@H]4C5(CC[C@H](NC(=O)C(C)C)[C@@]4(C)C=O)C[C@@]35C(=O)C[C@]2(C)[C@H]1[C@H](C)N(C)C (stereo partly drawn) [Compound 14, (20S)-16α-acetyl-3-isobutyrylamino-9,19-cyclo-4α-formyl-4,14α-dimethyl-20-dimethylamino-5α,9-pregnan-11-one] | > 1 µM | > 1 µM | – | –
7 | C[C@@H]([C@H]1[C@H](O)C[C@@]2(C)[C@@H]3CC[C@@H]4C(=CC[C@H](NC(=O)C(C)(C)C)[C@@]4(C)CO)C[C@H]3C(=O)C[C@]12C)N(C)C [Compound 7f, (20S)-10(9->1)abeo-4α-hydroxymethyl-4,14α-dimethyl-20-dimethylamino-3 (2,2-dimethylpropionylamino)-5α,9-pregn-1(10)-en-16α-ol-11-one] | 4.83 µM | > 1 µM | – | –
8 | C[C@@H]([C@H]1[C@H](O)C[C@@]2(C)[C@@H]3CC[C@@H]4C5(CC[C@H](N)[C@@]4(C)CO)C[C@@]35[C@@H](O)C[C@]12C)N(C)C (stereo partly drawn) [Compound 28, (20S)-3-amino-9,19-cyclo-4α-hydroxymethyl-4,14α-dimethyl-20-dimethylamino-5α,9-pregnan-16α,11-diol-11-one] | > 1 µM | 2.45 µM | – | –
9 | CC(=O)O[C@@H]1C[C@@]2(C)[C@@H]3CC[C@@H]4C5(CC[C@H](NC(=O)C(C)C)[C@@]4(C)CO)C[C@@]35C(=O)C[C@]2(C)[C@H]1[C@H](C)N(C)C (stereo partly drawn) [Compound 13, (20S)-16α-acetyl-3-isobutyrylamino-9,19-cyclo-4α-hydroxymethyl-4,14α-dimethyl-20-dimethylamino-5α,9-pregnan-11-one] | > 10 µM | > 1 µM | – | –
10 | C[C@@H]([C@H]1[C@H](O)C[C@@]2(C)[C@@H]3CC[C@@H]4C(=CC[C@H](NC(=O)C5CCCCC5)[C@@]4(C)CO)C[C@H]3C(=O)C[C@]12C)N(C)C [Compound 7d, (20S)-10(9->1)abeo-3-(cyclohexanecarboxyamino)-4α-hydroxymethyl-4,14α-dimethyl-20-dimethylamino-5α,9-pregn-1(10)-en-16α-ol-11-one] | > 1 µM | 4.02 µM | – | –
11 | C[C@@H]([C@H]1[C@H](O)C[C@@]2(C)[C@@H]3CC[C@H]4[C@](C)(CO)[C@@H](NC(=O)c5ccccc5)CC[C@@]45CC35C(=O)C[C@]12C)N(C)C (stereo partly drawn) [Compound 6b, (20S)-3-benzoylamino-9,19-cyclo-4α-hydroxymethyl-4,14α-dimethyl-20-dimethylamino-5α,9-pregnan-16α-ol-11-one] | > 10 µM | 2.21 µM | – | –
12 | CCC(C)C(=O)N[C@H]1CC=C2C[C@H]3C(=O)C[C@]4(C)[C@@H]([C@H](C)N(C)C)[C@H](O)C[C@@]4(C)[C@@H]3CC[C@H]2[C@]1(C)CO (stereo partly drawn) [Compound 7e, (20S)-10(9->1)abeo-4α-hydroxymethyl-4,14α-dimethyl-20-dimethylamino-3 (S-2-methylbutyrylamino)-5α,9-pregn-1(10)-en-16α-ol-11-one] | – | > 10 µM | 0.105 µM | –
13 | C[C@@H]([C@H]1[C@H](O)C[C@@]2(C)[C@@H]3CC[C@@H]4C5(CC[C@H](NC(=O)C6CCCCC6)[C@@]4(C)CO)C[C@@]35C(=O)C[C@]12C)N(C)C (stereo partly drawn) [Compound 6d, (20S)-3-(cyclohexanecarboxylamino)-9,19-cyclo-4α-hydroxymethyl-4,14α-dimethyl-20-dimethylamino-5α,9-pregnan-16α-ol-11-one] | > 10 µM | > 5 µM | – | –
14 | CC(C)C(=O)N[C@H]1CCC23C[C@]24C(=O)C[C@]2(C)[C@@H]([C@H](C)[N+](C)(C)[O-])[C@H](O)C[C@@]2(C)[C@@H]4CC[C@H]3[C@]1(C)CO (stereo partly drawn) [Compound 29, (20S)-3-isobutyrylamino-9,19-cyclo-4α-hydroxymethyl-4,14α-dimethyl-20-dimethylazinoyl-5α,9-pregnan-16α,11-ol-11-one] | 1.42 µM | > 1 µM | – | –
15 | C[C@@H]([C@H]1[C@H](O)C[C@@]2(C)[C@@H]3CC[C@@H]4C(=CC[C@H](NC(=O)c5ccccc5)[C@@]4(C)CO)C[C@H]3C(=O)C[C@]12C)N(C)C [Compound 7b, (20S)-10(9->1)abeo-3-benzoylamino-4α-hydroxymethyl-4,14α-dimethyl-20-dimethylamino-5α,9-pregn-1(10)-en-16α-ol-11-one] | > 10 µM | 1.88 µM | – | –
16 | CC(C)C1=NC2CC=C3C[C@H]4C(=O)C[C@]5(C)[C@@H]([C@H](C)N(C)C)[C@H](O)C[C@@]5(C)[C@@H]4CC[C@H]3[C@]2(C)CO1 (stereo partly drawn) [Compound 1, (20S)-10(9->1)abeo-4,14α-dimethyl-20-dimethylamino-(2′-isopropyl-4′,4′-dihydro[3′,1′]oxazine)-5α,9-pregn-1(10)-en-16α-ol-11-one] | 0.031 µM and 0.032 µM | > 1 µM | – | –
17 | CC(=O)O[C@@H]1C[C@@]2(C)[C@@H]3CC[C@@H]4C5(CC[C@H](NC(=O)C(C)C)[C@@]4(C)COS(=O)(=O)c4ccc(C)cc4)C[C@@]35C(=O)C[C@]2(C)[C@H]1[C@H](C)N(C)C (stereo partly drawn) [Compound 23, (20S)-16α-acetyl-3-isobutyrylamino-9,19-cyclo-4α-hydroxytosylmethyl-4,14α-dimethyl-20-dimethylamino-5α,9-pregnan-11-one] | 4.37 µM | > 100 µM | – | –
18 | CCC(C)C1=N[C@H]2CC=C3C[C@H]4C(=O)C[C@]5(C)[C@@H]([C@H](C)N(C)C)[C@H](O)C[C@@]5(C)[C@@H]4CC[C@H]3[C@]2(C)CO1 (mixture of isomers) [Compound 8h, (20S)-10(9->1)abeo-4,14α-dimethyl-20-dimethylamino(2′-(1-methylpropyl)-4′,4′ dihydro[3′,1′]oxazin)-5α,9-pregn-1(10)-en-16α-ol-11-one] | 0.027 µM | 1.54 µM | – | –
19 | CC(C)C(=O)NC1CC[C@]23CC24C(=O)C[C@]2(C)[C@@H]([C@H](C)N(C)C)[C@H](O)C[C@@]2(C)[C@@H]4CC[C@H]3[C@]1(C)CO (stereo in doubt) [Compound 2, (20S)-3-isobutyrylamino-9,19-cyclo-4α-hydroxymethyl-4,14α-dimethyl-20-dimethylamino-5α,9-pregnan-16α-ol-11-one] | – | > 10 µM | > 10 µM | –
20 | C[C@@H]([C@H]1[C@H](O)C[C@@]2(C)[C@@H]3CC[C@H]4[C@](C)(CO)[C@@H](N)CC[C@@]45CC35C(=O)C[C@]12C)N(C)C (stereo partly drawn) [Compound 5, (20S)-3-amino-9,19-cyclo-4α-hydroxymethyl-4,14α-dimethyl-20-dimethylamino-5α,9-pregnan-16α-ol-11-one] | > 5 µM | > 30 µM | – | –
21 | CC(C)[C@H]1N[C@H]2CCC34C[C@]35C(=O)C[C@]3(C)[C@@H]([C@H](C)N(C)C)[C@H](O)C[C@@]3(C)[C@@H]5CC[C@H]4[C@]2(C)CO1 (stereo partly drawn) [Compound 9, (20S)-9,19-cyclo-4,14α-dimethyl-20-dimethylamino(2′β-isopropyl-1′,2′,4′,4′-tetrahydro[3′,1′]oxazin)-5α,9-pregnan-16α-ol-11-one] | 2.38 µM | – | – | > 10 µM
